# Experimental data as given in ChEMBL document CHEMBL1142475, “1,2,3-Thiadiazole thioacetanilides as a novel class of potent HIV-1 non-nucleoside reverse transcriptase inhibitors” (Bioorg Med Chem Lett, 2008).
# Legend:
# [1] = tested on: Human immunodeficiency virus 1; test: Antiviral activity against HIV1 3B in human MT4 cells assessed as protection of cell against virus-induced cytopathogenicity; format: functional, organism-based; conditions: Human immunodeficiency virus 1, 3B
# [2] = Cytotoxicity against human MT4 cells; format: cell-based
# [3] = Selectivity index, ratio of CC50 for human MT4 cells to EC50 for HIV1 3B; format: toxicity, cell-based; conditions: for selectivity ratio: MT4 cells, read-out: Ratio CC50/EC50; for Activity: mt4
Compound,EC50 [1] [µM],CC50 [2] [µM],selectivity ratio [3],Activity [3]
Cc1ccc(NC(=O)CSc2snnc2-c2ccccc2)c(Br)c1,13.7,> 297,> 22,
COC(=O)c1ccc(NC(=O)CSc2snnc2-c2ccc(OC)cc2)c(Br)c1,2,195,97,
O=C(CSc1snnc1-c1ccccc1)Nc1ccccc1F,362,> 362,,Not Active
COc1ccc(-c2nnsc2SCC(=O)Nc2ccccc2Br)cc1,3.19,> 286,> 90,
O=C(CSc1snnc1-c1ccc(Cl)cc1Cl)Nc1ccccc1Br,0.149,≥ 147,≥ 981,
O=C(CSc1snnc1-c1ccccc1)Nc1ccccc1Br,22.4,> 308,> 14,
CCOC(=O)c1ccc(NC(=O)CSc2snnc2-c2ccc(Cl)cc2Cl)c(Br)c1,0.099,> 228,> 2300,
CCOC(=O)c1ccc(NC(=O)CSc2snnc2-c2ccccc2)c(Br)c1,5.21,≥ 232,≥ 45,
Cc1cn([C@H]2C[C@H](N=[N+]=[N-])[C@@H](CO)O2)c(=O)[nH]c1=O [ZIDOVUDINE],0.0151,> 93.5,> 6190,
O=C(CSc1snnc1-c1ccc(Cl)cc1Cl)Nc1ccccc1F,0.135,19.5,145,
O=C(CSc1snnc1-c1ccc(F)cc1F)Nc1ccccc1[N+](=O)[O-],4.14,165,40,
O=C(CSc1snnc1-c1ccc(Cl)cc1Cl)Nc1ccccc1Cl,0.118,111,943,
COc1ccc(-c2nnsc2SCC(=O)Nc2ccccc2Cl)cc1,2.63,> 319,> 121,
Cc1ccnc2c1NC(=O)c1cccnc1N2C1CC1 [NEVIRAPINE],,> 15,,
COc1ccc(-c2nnsc2SCC(=O)Nc2ccc(C)cc2Br)cc1,5.06,249,49,
COc1ccc(-c2nnsc2SCC(=O)Nc2ccccc2F)cc1,333,> 333,,Not Active

Compound,EC50 [1] [µM],CC50 [2] [µM],selectivity ratio [3],Activity [3]
O=C(CSc1snnc1-c1ccccc1)Nc1ccccc1Cl,26.1,> 345,> 13,
COC(=O)c1ccc(NC(=O)CSc2snnc2-c2ccccc2)c(Br)c1,5.1,> 269,> 53,
O=C(CSc1snnc1-c1ccc(F)cc1F)Nc1ccccc1Br,2.26,144,,
CC(C)Nc1cccnc1N1CCN(C(=O)c2cc3cc(NS(C)(=O)=O)ccc3[nH]2)CC1 [DELAVIRDINE],0.32,> 3.83,> 12,
O=C(CSc1snnc1-c1ccc(F)cc1F)Nc1ccccc1Cl,1.23,178,146,
Cc1ccc(NC(=O)CSc2snnc2-c2ccc(Cl)cc2Cl)c(Br)c1,0.204,> 256,> 1260,
CCOC(=O)c1ccc(NC(=O)CSc2snnc2-c2ccc(OC)cc2)c(Br)c1,3.01,> 246,> 82,
Cc1ccc(NC(=O)CSc2snnc2-c2ccc(F)cc2F)c(Br)c1,1.45,> 274,> 189,
O=C(CSc1snnc1-c1ccccc1)Nc1ccccc1[N+](=O)[O-],≥ 54.2,≥ 247,,Not Active
O=C1Nc2ccc(Cl)cc2[C@@](C#CC2CC2)(C(F)(F)F)O1 [EFAVIRENZ],0.0044,> 6.34,> 1430,
Cc1ccc(-n2c(C)nnc2SCC(=O)Nc2ccccc2)cc1,2.05,,,
O=C(CSc1snnc1-c1ccc(F)cc1F)Nc1ccccc1F,5.45,148,27,
NS(=O)(=O)c1ccc(NC(=O)CSc2nnc(Br)n2-c2ccc(C3CC3)c3ccccc23)c(Cl)c1,0.14,,,
O=C(CSc1snnc1-c1ccc(Cl)cc1Cl)Nc1ccccc1[N+](=O)[O-],0.059,> 283,> 4880,
COc1ccc(-c2nnsc2SCC(=O)Nc2ccccc2[N+](=O)[O-])cc1,0.99,≥ 281,≥ 283,
